In patent US7030067B2, “Bis(perfluoroalkanesulfonyl)imides and their salts as surfactants/additives for applications having extreme environments and methods therefor” (priority 2001, dated 2006):
Entries after “also recorded” stand apart in the source; their conditions may differ.

How the values were obtained:
[1] = Surface tension measurements in tributyl phosphate; format: physicochemical; conditions: 2000 ppm in tributyl phosphate
Procedure: (§1) All surface tensions were determined using a Kruss K12 Tensiometer. The tensiometer was integrated with an automatic dosimat and a computer, using a software package for dynamic contact angle (K121). The program was run using a Wilhelmy platinum plate (PL12) and glass sample vessel (GL7). All parts referenced above including instrument and computer are available from Kruss USA, Charlotte, N.C.
Surface tension measurements were obtained as described above with the exception that the measurments were obtained in tributyl phosphate.

[2] = DC conductivity of potassium salts in tributylphosphate; format: physicochemical; conditions: 3000 ppm in tributyl phosphate, 21.6-21.9° C.
Source text: Four tributylphosphate samples, with or without dissolved anti-erosion additives, measured for DC conductivity. The four samples were neat tributyl phosphate (control), tributyl phosphate with 3000 ppm FC-98, tributyl phosphate with 3000 ppm PBSK, and tributyl phosphate with 3000 ppm potassium bis(perfluorobutanesulfonyl)imide (DBIK).
The conductivity probe was carefully cleaned with EM Science OMNISOLV™ grade methanol, dried in a clean nitrogen stream, and allowed to equilibrate back to ambient temperature between samples.

[3] = Surface tension determination in water (Kruss K12 Tensiometer, Wilhelmy plate); format: physicochemical; conditions: for surface tension versus concentration profile, comparison in words: FIG. 1, 2, 3, 5
Procedure: Test Procedure I—Surface Tension Determination
as §1

[4] = Bioelimination study, fluorochemical sulfonate in male rat liver tissue; format: in vivo; conditions: for factor lower than C8F17SO3− / factor lower than C6F13SO3−: liver amount; for Amount of Sulfonate, Day 1 / Amount of Sulfonate, Day 14 / Amount of Sulfonate, Day 28: male rat liver tissue, dose 30 (C4), 10 (C6), 3 (C8) mg/kg body weight/day; for Amount of Sulfonate, Day 1: Day 1 following completion of feeding; for Amount of Sulfonate, Day 1N / Amount of Sulfonate, Day 14N / Amount of Sulfonate, Day 28N: male rat liver, normalized to a feeding level of 3 mg/kg body weight per day; for elimination from the body, in words: tested in the form of its potassium salt
Procedure: Comparative study of potassium perfluorobutanesulfonate (using a dose level of 30 mg/kg body weight/day), potassium perfluorohexanesulfonate (using a dose level of 10 mg/kg body weight/day), and potassium perfluorooctanesulfonate (using a dose level of 3 mg/kg body weight/day).

[5] = Solubility in 10/1 buffered oxide etch solution
[6] = 28 days following completion of feeding
[7] = 28 days following completion of feeding, after normalization to the same feeding levels
[8] = immediately following completion of feeding

## O=S(=O)([N-]S(=O)(=O)C(F)(F)C(F)(F)C(F)(F)C(F)(F)F)C(F)(F)C(F)(F)C(F)(F)C(F)(F)F.[K+] [C4F9SO2NKSO2C4F9, potassium bis(perfluorobutanesulfonyl)imide]
[1]
  Surface Tension @ 2000 ppm: 27.34 dyne/cm
[2]
  Observed Conductivity: 13.8 uS/cm
[3]; 10 ppm
  surface tension (surface energy): 61.85 dynes/cm
[3]; 100 ppm
  surface tension (surface energy): 41.61 dynes/cm
[3]; 1000 ppm
  surface tension (surface energy): 34.02 dynes/cm
[3]
  surface tension versus concentration profile, comparison in words: surface tensions significantly less than PBSK and comparable to potassium perfluorooctanesulfonate at equal concentrations; also recorded: the same or better surface tension in water as C8F17SO3K

## O=S(=O)([O-])C(F)(F)C(F)(F)C(F)(F)C(F)(F)C(F)(F)C(F)(F)F.[K+] [C6F13SO3^−, potassium perfluorohexanesulfonate]
[4]; [6]
  factor lower than C8F17SO3−: 6.5
[4]; [7]
  factor lower than C8F17SO3−: 21.5
[4]; [8]
  factor lower than C8F17SO3−: 1.3
[4]
  Amount of Sulfonate, Day 1: 327 ± 52 ppm
  Amount of Sulfonate, Day 14: 61.9 ± 11.7 ppm
  Amount of Sulfonate, Day 28: 36.3 ± 7.4 ppm
  Amount of Sulfonate, Day 1N: 98 ppm
  Amount of Sulfonate, Day 14N: 19 ppm
  Amount of Sulfonate, Day 28N: 11 ppm

## O=S(=O)([O-])C(F)(F)C(F)(F)C(F)(F)C(F)(F)C(F)(F)C(F)(F)C(F)(F)C(F)(F)F.O=S(=O)([O-])C(F)(F)C(F)(F)C(F)(F)C(F)(F)C(F)(F)C(F)(F)C(F)(F)C(F)(F)F.[Ca+2] [Ca(C8F17SO3)2]
[1]
  Surface Tension @ 2000 ppm: 26.15 dyne/cm

## O=S(=O)([N-]S(=O)(=O)C(F)(F)C(F)(F)C(F)(F)C(F)(F)F)C(F)(F)C(F)(F)C(F)(F)C(F)(F)F.[Li+] [DBI-Li, Lithium bis(perfluorobutanesulfonyl)imide]
[3]; 200 ppm
  surface tension: 53.2 dyne/cm
[3]; 450 ppm
  surface tension: 48.1 dyne/cm
[3]; 960 ppm
  surface tension: 42.8 dyne/cm
[3]; 1300 ppm
  surface tension: 41.5 dyne/cm
[3]; 1700 ppm
  surface tension: 39.1 dyne/cm
[3]; 2600 ppm
  surface tension: 36.0 dyne/cm
[3]
  surface tension versus concentration profile, comparison in words: significantly lower surface tensions than the shorter chain homologues

## N.O=S(=O)(NS(=O)(=O)C(F)(F)C(F)(F)C(F)(F)C(F)(F)F)C(F)(F)C(F)(F)C(F)(F)C(F)(F)F [DBI-NH4, NH4^+−N(SO2C4F9)2]
[3]; 200 ppm
  surface tension: 48.6 dyne/cm
[3]; 450 ppm
  surface tension: 44.1 dyne/cm
[3]; 960 ppm
  surface tension: 40.1 dyne/cm
[3]; 1300 ppm
  surface tension: 38.7 dyne/cm
[3]; 1700 ppm
  surface tension: 35.9 dyne/cm
[3]; 2600 ppm
  surface tension: 31.5 dyne/cm
[3]
  surface tension versus concentration profile, comparison in words: better surfactants than NH4^+−OSO2C8F17

## O=S(=O)([O-])C(F)(F)C(F)(F)C(F)(F)C(F)(F)F.[K+] [Example C4F9SO3K, Potassium perfluorobutanesulfonate]
[1]
  Surface Tension @ 2000 ppm: 27.32 dyne/cm
[2]
  Observed Conductivity: 3.5 uS/cm
[4]; [6]
  factor lower than C6F13SO3−: > 1400
[4]; [7]
  factor lower than C6F13SO3−: 4400
[4]; [8]
  factor lower than C6F13SO3−: > 100
[4]
  Amount of Sulfonate, Day 1: 3.09 ± 1.58 ppm
  Amount of Sulfonate, Day 14: 0.126 ± 0.084 ppm
  Amount of Sulfonate, Day 28: 0.025 ± 0.015 ppm
  Amount of Sulfonate, Day 1N: 0.31 ppm
  Amount of Sulfonate, Day 14N: 0.0126 ppm
  Amount of Sulfonate, Day 28N: 0.0025 ppm
[4]; listed as C4F9SO3^−
  elimination from the body, in words: unexpectedly fast and effective elimination
[4]; listed as perfluorobutanesulfonate
  elimination from the body, in words: eliminates from the body more rapidly than perfluorohexanesulfonate and much more rapidly than perfluorooctanelsulfonate
[3]; 10 ppm
  surface tension (surface energy): 70 dynes/cm
[3]; 100 ppm
  surface tension (surface energy): 67.5 dynes/cm
[3]; 1000 ppm
  surface tension (surface energy): 53 dynes/cm
[3]
  surface tension versus concentration profile, comparison in words: less effective than perfluorooctanesulfonate in lowering the surface tension of water

## O=S(=O)([O-])C(F)(F)C(F)(F)C(F)(F)C(F)(F)C(F)(F)C(F)(F)C(F)(F)C(F)(F)F.[K+] [Example C8F17SO3K, Potassium perfluorooctanesulfonate]
[1]
  Surface Tension @ 2000 ppm: 26.96 dyne/cm
[4]
  Amount of Sulfonate, Day 1: 419 ± 86 ppm
  Amount of Sulfonate, Day 14: 309 + 34 ppm
  Amount of Sulfonate, Day 28: 237 ± 25 ppm
  Amount of Sulfonate, Day 1N: 419 ppm
  Amount of Sulfonate, Day 14N: 309 ppm
  Amount of Sulfonate, Day 28N: 237 ppm
[3]; 10 ppm
  surface tension (surface energy): 67.68 dynes/cm
[3]; 100 ppm
  surface tension (surface energy): 54.09 dynes/cm
[3]; 1000 ppm
  surface tension (surface energy): 33.17 dynes/cm

## N.O=S(=O)(O)C(F)(F)C(F)(F)C(F)(F)C(F)(F)C(F)(F)C(F)(F)C(F)(F)C(F)(F)F [FC-93, ammonium perfluorooctanesulfonate]
[5]; all concentrations (FIG. 4)
  solubility in buffered oxide etch: precipitated

## O=S(=O)([O-])C1(F)C(F)(F)C(F)(F)C(F)(C(F)(F)C(F)(F)F)C(F)(F)C1(F)F.[K+] (stereo not drawn) [FC-98, Potassium perfluoroethylcyclohexanesulfonate]
[1]
  Surface Tension @ 2000 ppm: 26.94 dyne/cm
[2]
  Observed Conductivity: 3.2 uS/cm

## O=S(=O)([N-]S(=O)(=O)C(F)(F)C(F)(F)C(F)(F)C(F)(F)F)C(F)(F)C(F)(F)C(F)(F)C(F)(F)F.O=S(=O)([N-]S(=O)(=O)C(F)(F)C(F)(F)C(F)(F)C(F)(F)F)C(F)(F)C(F)(F)C(F)(F)C(F)(F)F.[Mg+2] [Mg (DBI)2, Mg^+2[^−N(SO2C4F9)2]2]
[1]
  Surface Tension @ 2000 ppm: 27.04 dyne/cm
[3]; 200 ppm
  surface tension: 46.6 dyne/cm
[3]; 450 ppm
  surface tension: 40.2 dyne/cm
[3]; 960 ppm
  surface tension: 35.0 dyne/cm
[3]; 1300 ppm
  surface tension: 32.0 dyne/cm
[3]; 1700 ppm
  surface tension: 29.0 dyne/cm
[3]; 2600 ppm
  surface tension: 26.3 dyne/cm

## O=S(=O)([O-])C(F)(F)C(F)(F)C(F)(F)C(F)(F)C(F)(F)C(F)(F)C(F)(F)C(F)(F)F.O=S(=O)([O-])C(F)(F)C(F)(F)C(F)(F)C(F)(F)C(F)(F)C(F)(F)C(F)(F)C(F)(F)F.[Mg+2] [Mg(C8F17SO3)2]
[1]
  Surface Tension @ 2000 ppm: 27.36 dyne/cm

## O.O.O.O.O.O.O=S(=O)([O-])C(F)(F)C(F)(F)C(F)(F)C(F)(F)F.O=S(=O)([O-])C(F)(F)C(F)(F)C(F)(F)C(F)(F)F.[Mg+2] [Mg(SO3C4F9)2 · 6H2O]
[1]
  Surface Tension @ 2000 ppm: 26.93 dyne/cm

## O=S(=O)(NS(=O)(=O)C(F)(F)C(F)(F)C(F)(F)C(F)(F)F)C(F)(F)C(F)(F)C(F)(F)C(F)(F)F [bis(perfluorobutanesulfonyl)imide, HN(SO2C4F9)2]
[5]; 1000 ppm
  appearance of solution: slightly hazy to the eye
[3]
  surface tension versus concentration profile, comparison in words: better surfactants than NH4^+−OSO2C8F17

## [^−N(SO2C4F9)2]2 (+)H3NCH(CH3)CH2[OCH(CH3)CH2]a[OCH2CH2]8.5[OCH(CH3)CH2]CNH3(+) (a+c=2.5) [(DBI)2 JEFFAMINE ™ ED600]
[3]; 10 ppm
  surface tension (surface energy): 57.4 dynes/cm
[3]; 100 ppm
  surface tension (surface energy): 40.7 dynes/cm
[3]; 1000 ppm
  surface tension (surface energy): 32.7 dynes/cm
[3]
  surface tension versus concentration profile, comparison in words: significantly lower surface tensions than C4F9SO3K
